By remaining activity is commonly meant the activity still measured, relative to the control. Low readings indicate little activity left, high ones much activity left.

This assay deals with T1, Cereblon (CRBN) protein (Homo sapiens, UniProt Q96SW2).
T1 construct: DNA label for qPCR detection (not a peptide tag); host or cells: HEK-293
T1 sequence (Q96SW2 whole entry): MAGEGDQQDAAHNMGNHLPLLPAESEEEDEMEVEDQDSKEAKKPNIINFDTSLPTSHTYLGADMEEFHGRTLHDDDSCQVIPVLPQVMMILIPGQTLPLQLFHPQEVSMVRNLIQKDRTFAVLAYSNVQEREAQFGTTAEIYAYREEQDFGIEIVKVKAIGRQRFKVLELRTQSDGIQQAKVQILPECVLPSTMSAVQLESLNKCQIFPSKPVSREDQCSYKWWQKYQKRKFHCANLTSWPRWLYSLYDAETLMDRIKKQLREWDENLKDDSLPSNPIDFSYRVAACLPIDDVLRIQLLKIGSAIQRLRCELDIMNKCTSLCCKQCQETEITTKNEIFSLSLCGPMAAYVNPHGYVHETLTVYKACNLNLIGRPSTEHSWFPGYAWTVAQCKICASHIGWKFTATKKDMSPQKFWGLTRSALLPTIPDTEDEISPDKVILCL
As to the kind of experiment: CRBN binding affinity, E3scan (% Ctrl). Particulars: lower % Ctrl = stronger binding, DMSO 100% Ctrl. An excerpt: As used herein, the term “Cereblon (CRBN)” refers to a protein encoded by a human CRBN gene located at a cytogenetic location of 3p26.2 and a molecular location between base pairs 3,148,489 and 3,179,716 on chromosome 3 (UCSC Genome Browser on Human, December 2013 (GRCh38/hg38) assembly). CRBN is a substrate recognition component of a DCX (DDB1-CUL4-X-box) E3 protein ligase complex mediating ubiquitination and subsequent proteasomal degradation of a target protein. The DCX (DDB1-CUL4-X-box) E3 protein ligase complex may comprise at least CRBN, CUL4A, DDB1, and RBX1. The CRBN protein has two isoforms generated by alternative splicing: isoform 1 has 442 amino acids and a molecular weight of 50,546 Da; and isoform 2 has 441 amino acids and a molecular weight of 50,475 Da.
To confirm the binding affinity of the compounds synthesized in the Preparation Examples for a Cereblon (CRBN) protein, the following experiment was performed using E3scan™ from Eurofins.
Specifically, CRBN was produced using a HEK-293 cell line and labeled with DNA for qPCR detection. Streptavidin-coated magnetic beads were treated with a biotinylated small-molecule ligand at room temperature for 30 minutes to generate an affinity resin for E3scan analysis. The liganded beads were blocked with excess biotin and washed with a blocking buffer (SeaBlock (Pierce), 1% BSA, 0.05% Tween 20, 1 mM DTT) to remove unbound ligands and prevent non-specific binding. […] The test compound was prepared as a 100× stock in 100% DMSO and diluted directly into the assay solution. All reactions were performed in a polypropylene 384-well plate with a final reaction volume of 0.02 mL. […] Then, the beads were resuspended in an elution buffer (1×PBS, 0.05% Tween 20, 0.5 μM non-biotinylated affinity ligand) and incubated with shaking at room temperature for 30 minutes. The CRBN concentration in the eluate was measured by qPCR. […] A lower ‘% Ctrl’ indicates a stronger binding affinity.
In turn, `O=C1CCC(N2Cc3nc(C(=O)c4ccccc4)ccc3C2=O)C(=O)N1` (stereo not shown) [Compound 5, 3-(2-benzoyl-5-oxo-5,7-dihydro-6H-pyrrolo[3,4-b]pyridin-6-yl)piperidine-2,6-dione] had a remaining activity at 5 µM of 1 to 10%.

For the molecule `O=C1CCC(N2Cc3cc(C(=O)c4n[nH]c5ccccc45)ccc3C2=O)C(=O)N1` (stereo not shown) [Compound 17, 3-(5-(1H-indazole-3-carbonyl)-1-oxoisoindolin-2-yl)piperidine-2,6-dione], the remaining activity at 5 µM lay within 0 to 0.1%.

With `O=C1CCC(N2Cc3cc(C(=O)c4ccc5cn[nH]c5c4)ccc3C2=O)C(=O)N1` (stereo not shown) [Compound 21, 3-(5-(1H-indazole-6-carbonyl)-1-oxoisoindolin-2-yl)piperidine-2,6-dione], the remaining activity at 5 µM lay within 0 to 0.1%.

Consider `O=C1CCC(N2Cc3cc(C(=O)n4ncc5ccccc54)ccc3C2=O)C(=O)N1` (stereo not shown) [Compound 6, 3-(5-(1H-indazole-1-carbonyl)-1-oxoisoindolin-2-yl)piperidine-2,6-dione], for which the remaining activity at 5 µM is 0 to 0.1%.

`O=C1CCC(N2C(=O)c3ccc(C(=O)c4cc5ccccc5[nH]4)cc3C2=O)C(=O)N1` (stereo not shown) [Compound 10, 2-(2,6-dioxopiperidin-3-yl)-5-(1H-indole-2-carbonyl)isoindoline-1,3-dione]: the remaining activity at 5 µM was 1 to 10%.

As for `O=C1CCC(N2Cc3cc(C(=O)c4cc(-c5ccccc5)c[nH]4)ccc3C2=O)C(=O)N1` (stereo not shown) [Compound 27, 3-(1-oxo-5-(4-phenyl-1H-pyrrole-2-carbonyl)isoindolin-2-yl)piperidine-2,6-dione], the remaining activity at 5 µM was 0 to 0.1%.

`O=C1CCC(N2Cc3cc(C(=O)N4Cc5ccccc5C4)ccc3C2=O)C(=O)N1` (stereo not shown) [Compound 36]: the remaining activity at 5 µM lay within 0 to 0.1%.

As to `O=C1CCC(N2Cc3cc(C(=O)C4CCN(Cc5ccccc5)CC4)ccc3C2=O)C(=O)N1` (stereo not shown) [Compound 11, 3-(5-(1-benzylpiperidine-4-carbonyl)-1-oxoisoindolin-2-yl)piperidine-2,6-dione], the remaining activity at 5 µM was in the range of 0 to 0.1%.

For the molecule `O=C1CCC(N2Cc3cc(C(=O)c4ccc(-c5ccccc5)[nH]4)ccc3C2=O)C(=O)N1` (stereo not shown) [Compound 28, 3-(1-oxo-5-(5-phenyl-1H-pyrrole-2-carbonyl)isoindolin-2-yl)piperidine-2,6-dione], the remaining activity at 5 µM lay in the range of 1 to 10%.

With `O=C1CCC(N2Cc3cc(C(=O)N4CCCC4)ccc3C2=O)C(=O)N1` (stereo not shown) [Compound 7, 3-(1-oxo-5-(pyrrolidine-1-carbonyl)isoindolin-2-yl)piperidine-2,6-dione], the remaining activity at 5 µM was 0 to 0.1%.

On to `O=C1CCC(N2Cc3cc(C(=O)c4cc(-c5ccccc5)cs4)ccc3C2=O)C(=O)N1` (stereo not shown) [Compound 30, 3-(1-oxo-5-(4-phenylthiophene-2-carbonyl)isoindolin-2-yl)piperidine-2,6-dione], for which the remaining activity at 5 µM is 0 to 0.1%.

`O=C1CCC(N2Cc3cc(C(=O)c4cc5ccccc5[nH]4)ccc3C2=O)C(=O)N1` (stereo not shown) [Compound 3, 3-(5-(1H-indole-2-carbonyl)-1-oxoisoindolin-2-yl)piperidine-2,6-dione] showed a remaining activity at 5 µM of 0 to 0.1%.

Take `O=C1CCC(N2Cc3cc(C(=O)N4Cc5cccc6cccc4c56)ccc3C2=O)C(=O)N1` (stereo not shown) [Compound 31, 3-(5-(1,2-dihydrobenzo[cd]indole-1-carbonyl)-1-oxoisoindolin-2-yl)piperidine-2,6-dione]: the remaining activity at 5 µM was 0 to 0.1%.

Consider `O=C1CCC(N2Cc3cc(C(=O)c4ccccn4)ccc3C2=O)C(=O)N1` (stereo not shown) [Compound 12, 3-(1-oxo-5-picolinoylisoindolin-2-yl)piperidine-2,6-dione], for which the remaining activity at 5 µM lay within 0 to 0.1%.

`O=C1CCC(N2Cc3cc(C(=O)c4cccc(Nc5ccccc5)c4)ccc3C2=O)C(=O)N1` (stereo not shown) [Compound 16, 3-(1-oxo-5-(3-(phenylamino)benzoyl)isoindolin-2-yl)piperidine-2,6-dione] registered a remaining activity at 5 µM of 0 to 0.1%.

In turn, `O=C1CCC(N2Cc3cc(C(=O)c4ccc(Nc5ccccc5)cc4)ccc3C2=O)C(=O)N1` (stereo not shown) [Compound 15, 3-(1-oxo-5-(4-(phenylamino)benzoyl)isoindolin-2-yl)piperidine-2,6-dione] yielded a remaining activity at 5 µM of 0 to 0.1%.

For `CNc1ccc2cc(C(=O)c3ccc4c(c3)CN(C3CCC(=O)NC3=O)C4=O)[nH]c2c1` (stereo not shown) [Compound 22, 3-(5-(6-(methylamino)-1H-indole-2-carbonyl)-1-oxoisoindolin-2-yl)piperidine-2,6-dione], the remaining activity at 5 µM was 0 to 0.1%.

For `O=C1CCC(N2Cc3cc(C(=O)c4c[nH]c5ccc(-c6ccccc6)cc45)ccc3C2=O)C(=O)N1` (stereo not shown) [Compound 24, 3-(1-oxo-5-(5-phenyl-1H-indole-3-carbonyl)isoindolin-2-yl)piperidine-2,6-dione], the remaining activity at 5 µM lay within 10 to 35%.

Molecule `O=C1CCC(N2Cc3cc(C(=O)c4cn(-c5ccccc5)c5ccccc45)ccc3C2=O)C(=O)N1` (stereo not shown) [Compound 35, 3-(1-oxo-5-(1-phenyl-1H-indole-3-carbonyl)isoindolin-2-yl)piperidine-2,6-dione] gave a remaining activity at 5 µM of 0 to 0.1%.

`O=C1CCC(N2Cc3cc(C(=O)c4cccc(-c5ccccc5)c4)ccc3C2=O)C(=O)N1` (stereo not shown) [Compound 26, 3-(5-([1,1′-biphenyl]-3-carbonyl)-1-oxoisoindolin-2-yl)piperidine-2,6-dione]: the remaining activity at 5 µM lay in the range of 0 to 0.1%.

`O=C1CCC(N2Cc3cc(C(=O)c4c[nH]c5ccccc45)ccc3C2=O)C(=O)N1` (stereo not shown) [Compound 4, 3-(5-(1H-indole-3-carbonyl)-1-oxoisoindolin-2-yl)piperidine-2,6-dione]: the remaining activity at 5 µM lay within 0.1 to 1%.

Take `O=C1CCC(N2Cc3cc(C(=O)c4cc5ccccc5o4)ccc3C2=O)C(=O)N1` (stereo not shown) [Compound 34, 3-(5-(benzofuran-2-carbonyl)-1-oxoisoindolin-2-yl)piperidine-2,6-dione]: the remaining activity at 5 µM lay in the range of 0 to 0.1%.

Turning to `O=C1CCC(N2Cc3cc(C(=O)c4cn(-c5ccccc5)c5ccc(-c6ccccc6)cc45)ccc3C2=O)C(=O)N1` (stereo not shown) [Compound 25, 3-(5-(1,5-diphenyl-1H-indole-3-carbonyl)-1-oxoisoindolin-2-yl)piperidine-2,6-dione], the remaining activity at 5 µM lay within 10 to 35%.

The molecule `O=C1CCC(N2Cc3cc(C(=O)c4coc5ccccc45)ccc3C2=O)C(=O)N1` (stereo not shown) [Compound 37, 3-(5-(benzofuran-3-carbonyl)-1-oxoisoindolin-2-yl)piperidine-2,6-dione] came in with a remaining activity at 5 µM of 1 to 10%.

With `O=C1CCC(N2Cc3cc(C(=O)c4ccccc4)ccc3C2=O)C(=O)N1` (stereo not shown) [Compound 1, 3-(5-benzoyl-1-oxoisoindolin-2-yl)piperidine-2,6-dione], the remaining activity at 5 µM fell in the range of 1 to 10%.

Source of the values: patent US20260347333A1, “NOVEL COMPOUND AND USE THEREOF” (PROTIER BIOTECH INC., priority 2023, published 2026).
